In paper PMC11079024, “Identification of a family of species-selective complex I inhibitors as potential anthelmintics” (Nature Communications, 2024):
Read-outs that look alike come from different tables or passages of the source.

Experiments:
P. pacificus complex I = P. pacificus complex I (Pristionchus pacificus, UniProt A0A454XZ18+A0A8R1Z3U8+A4UAP3); assay: In vitro complex I activity assay, P. pacificus mitochondria; assay type: biochemical
Method: (§1) Mitochondria were isolated from the following free-living nematode strains: C. elegans—N2, CB3474, ECA882, ECA917, ECA1075, ECA1080; C. briggsae—AF16; P. pacificus—PS312; and P. hermaphrodita—B178. With the exception of the P. hermaphrodita strain B178, adult worms of each strain were grown in bulk through liquid culture to obtain mitochondria in sufficient quantities. Due to poor growth in liquid media, mixed stage populations of P. hermaphrodita were washed off and collected from NGM plates seeded with OP50. The isolation of mitochondria from all free-living nematode strains followed the protocol previously outlined in Burns et al.[24]. In brief, a 1 L saturated culture of E. coli HB101 was concentrated 20-fold in 50 mL complete S-medium. ~500,000 L1 worms synchronized from an embryo preparation performed the day prior were added to the S-media/HB101 suspension and grown to adulthood over the course of 3.5 days at 20 °C with shaking at 165 rpm. Following growth, worms were collected in 10 ×15 mL conical tubes and washed 7 times in M9 buffer. Worm suspensions were then combined into a single 15 mL conical tube and diluted to a final volume of 15 mL with M9 buffer. 1 mL aliquots of worm suspension were then distributed to 15 × 1.5 mL screw-cap microcentrifuge tubes and were pelleted at 500 g for 1 min. Excess M9 was aspirated without disturbing the worm pellet. 600 μL ice-cold isolate buffer A (250 mM sucrose, 10 mM Tris (pH 7.5), 1 mM EDTA, 1 mM PMSF (freshly prepared)) and 300 μL cold glass beads were then added to each tube. Tubes were incubated on ice for 10 min, and the worms were then lysed by bead beating (6 x 30 s, with 1 min cooling intervals). Tubes containing worm lysate were centrifuged at 1,000 g for 10 min at 4 °C and the supernatant was transferred to 15 new microcentrifuge tubes on ice. The tubes were centrifuged a second time at 1,000 g for 10 min at 4 °C and the supernatant was once again transferred to 15 new microcentrifuge tubes on ice. These tubes were then centrifuged at 16,000 g for 10 min at 4 °C. The resulting mitochondrial pellet was washed twice by re-suspension in 300 μL of ice-cold isolate buffer B (250 mM sucrose, 10 mM Tris (pH 7.5), 1 mM EDTA). Following the final wash, isolation buffer was aspirated from each tube and the pellets were flash-frozen in ethanol/dry ice and stored at −80 °C until needed.
(§2) The enzymatic activities of individual ETC complexes (I-IV) were assessed spectrophotometrically in isolated mitochondria using a Varioskan LUX Multimode plate reader (ThermoFisher Scientific). Mitochondrial pellets previously isolated were thawed on ice and resuspended in ice-cold isolation buffer (250 mM sucrose, 10 mM Tris (pH 7.5), 1 mM EDTA). The BCA assay (Walker, 1994) was used to quantify the protein concentration of mitochondria suspensions; solutions were diluted to a concentration of 0.2 mg/mL for use in all assays. For the complex I assay, mitochondria pellets were freeze-thawed on ice three times to increase enzyme accessibility. […] 20 μL mitochondria suspension was then added/mixed with a pipette to initiate the reaction. Immediately following the addition of mitochondria, absorbance was measured (complex I and II: 600 nm; complex III and IV: 550 nm) in 30 s intervals over 15 min. Enzymatic activity was determined in each reaction by plotting absorbance versus time and calculating the slope of the curve during the initial linear phase of the reaction. […] Percent activity of each complex was calculated by dividing the enzyme-specific activity of each well by the enzyme-specific activity of the corresponding solvent controls.
Chemical solutions were prepared in complex I assay buffer composed of 25 mM KPi buffer (pH 7.5), 3 mg/mL bovine serum albumin (BSA), 80 μM NADH, 60 μM decylubiquinone, 160 μM DCIP, 2 μM antimycin A and 2 mM KCN. […]

C. briggsae complex I = C. briggsae complex I (Caenorhabditis briggsae, UniProt A8X476+A8XFG2+Q8HEC4); assay: In vitro complex I activity assay, C. briggsae mitochondria; assay type: biochemical
Method: as §1, §2
Chemical solutions were prepared in complex I assay buffer composed of 25 mM KPi buffer (pH 7.5), 3 mg/mL bovine serum albumin (BSA), 80 μM NADH, 60 μM decylubiquinone, 160 μM DCIP, 2 μM antimycin A and 2 mM KCN.
For preliminary screens of hit compounds, compounds were screened at 100 μM; data are the average of at least three biological replicates.

[1] = P. pacificus mitochondria, Mean, read-out: in vitro complex I activity relative to solvent control
[2] = P. pacificus mitochondria, single replicate, read-out: in vitro complex I activity relative to solvent control
[3] = C. briggsae mitochondria, Mean, read-out: in vitro complex I activity relative to solvent control
[4] = C. briggsae mitochondria, single replicate, read-out: in vitro complex I activity relative to solvent control

C. briggsae complex I, sequence (A8X476 31-482): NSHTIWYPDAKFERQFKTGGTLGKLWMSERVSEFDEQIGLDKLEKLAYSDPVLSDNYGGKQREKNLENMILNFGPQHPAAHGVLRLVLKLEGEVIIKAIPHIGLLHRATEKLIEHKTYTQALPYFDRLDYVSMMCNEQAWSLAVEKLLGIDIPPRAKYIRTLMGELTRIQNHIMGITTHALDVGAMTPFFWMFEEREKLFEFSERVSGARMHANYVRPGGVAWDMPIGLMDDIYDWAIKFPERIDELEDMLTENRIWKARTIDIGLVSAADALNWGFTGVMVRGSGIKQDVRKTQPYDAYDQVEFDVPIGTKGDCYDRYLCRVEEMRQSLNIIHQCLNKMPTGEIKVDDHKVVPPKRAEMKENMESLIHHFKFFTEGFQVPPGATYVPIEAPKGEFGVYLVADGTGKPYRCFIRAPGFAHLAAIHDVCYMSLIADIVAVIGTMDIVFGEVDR
C. briggsae complex I, sequence (A8XFG2 17-199): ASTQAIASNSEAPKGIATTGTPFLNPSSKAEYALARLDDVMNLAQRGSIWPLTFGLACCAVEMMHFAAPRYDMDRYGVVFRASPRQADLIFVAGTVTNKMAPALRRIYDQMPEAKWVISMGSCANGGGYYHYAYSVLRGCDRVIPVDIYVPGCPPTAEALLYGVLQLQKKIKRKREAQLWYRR
C. briggsae complex I, sequence (Q8HEC4 whole entry): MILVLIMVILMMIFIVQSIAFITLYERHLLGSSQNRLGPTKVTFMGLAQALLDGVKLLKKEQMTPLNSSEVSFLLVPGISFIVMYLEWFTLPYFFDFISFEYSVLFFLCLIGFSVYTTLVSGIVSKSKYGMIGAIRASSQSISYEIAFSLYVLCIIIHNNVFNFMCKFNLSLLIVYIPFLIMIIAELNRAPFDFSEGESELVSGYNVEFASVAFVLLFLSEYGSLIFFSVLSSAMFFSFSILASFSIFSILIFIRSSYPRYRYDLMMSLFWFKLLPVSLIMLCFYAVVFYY

What does the source list for Cc1ccccc1OCCCCn1cnc2ccccc21 [Compound 7732524]?
remaining activity at 0.0001 µM (P. pacificus complex I; [1]): 87.6%; remaining activity at 0.0001 µM (P. pacificus complex I; [2]): 93.9%; remaining activity at 0.0005 µM (P. pacificus complex I; P. pacificus mitochondria, 0.0005 µM, Mean, read-out: in vitro complex I activity relative to solvent control): 88.6%; remaining activity at 0.001 µM (P. pacificus complex I; P. pacificus mitochondria, 0.001 µM, Mean, read-out: in vitro complex I activity relative to solvent control): 75.8%; remaining activity at 0.0025 µM (P. pacificus complex I; P. pacificus mitochondria, 0.0025 µM, Mean, read-out: in vitro complex I activity relative to solvent control): 97.4%; remaining activity at 0.005 µM (P. pacificus complex I; P. pacificus mitochondria, 0.005 µM, Mean, read-out: in vitro complex I activity relative to solvent control): 100%; remaining activity at 0.013 µM (P. pacificus complex I; P. pacificus mitochondria, 0.013 µM, Mean, read-out: in vitro complex I activity relative to solvent control): 85.8%; remaining activity at 0.025 µM (P. pacificus complex I; P. pacificus mitochondria, 0.025 µM, Mean, read-out: in vitro complex I activity relative to solvent control): 73.7%; remaining activity at 0.063 µM (P. pacificus complex I; P. pacificus mitochondria, 0.063 µM, Mean, read-out: in vitro complex I activity relative to solvent control): 46.6%; remaining activity at 0.125 µM (P. pacificus complex I; P. pacificus mitochondria, 0.125 µM, Mean, read-out: in vitro complex I activity relative to solvent control): 24.7%; remaining activity at 0.313 µM (P. pacificus complex I; P. pacificus mitochondria, 0.313 µM, Mean, read-out: in vitro complex I activity relative to solvent control): 8.23%; remaining activity at 0.625 µM (P. pacificus complex I; P. pacificus mitochondria, 0.625 µM, Mean, read-out: in vitro complex I activity relative to solvent control): 11.5%; remaining activity at 1.5 µM (P. pacificus complex I; P. pacificus mitochondria, 1.5 µM, Mean, read-out: in vitro complex I activity relative to solvent control): 9.66%; remaining activity at 3 µM (P. pacificus complex I; P. pacificus mitochondria, 3 µM, Mean, read-out: in vitro complex I activity relative to solvent control): 9.9%; remaining activity at 15 µM (P. pacificus complex I; [1]): 16.2%; remaining activity at 15 µM (P. pacificus complex I; [2]): 15.9%; remaining activity at 37.5 µM (P. pacificus complex I; P. pacificus mitochondria, 37.5 µM, Mean, read-out: in vitro complex I activity relative to solvent control): 16.1%; remaining activity at 75 µM (P. pacificus complex I; P. pacificus mitochondria, 75 µM, Mean, read-out: in vitro complex I activity relative to solvent control): 7.58%; IC50 (P. pacificus complex I; purified mitochondria): 56.2 nM; remaining activity at 0.0001 µM (C. briggsae complex I; [3]): 92.8%; remaining activity at 0.0001 µM (C. briggsae complex I; [4]): 92.9%; remaining activity at 0.0005 µM (C. briggsae complex I; [3]): 91%; remaining activity at 0.0005 µM (C. briggsae complex I; [4]): 90.7%; remaining activity at 0.001 µM (C. briggsae complex I; [3]): 90.6%; remaining activity at 0.001 µM (C. briggsae complex I; [4]): 94.1%; remaining activity at 0.0025 µM (C. briggsae complex I; [3]): 91.8%; remaining activity at 0.0025 µM (C. briggsae complex I; [4]): 95.4%; remaining activity at 0.005 µM (C. briggsae complex I; [3]): 99.8%; remaining activity at 0.005 µM (C. briggsae complex I; [4]): 102%; remaining activity at 0.013 µM (C. briggsae complex I; [3]): 86.4%; remaining activity at 0.013 µM (C. briggsae complex I; [4]): 91.2%; remaining activity at 0.025 µM (C. briggsae complex I; [3]): 74.3%; remaining activity at 0.025 µM (C. briggsae complex I; [4]): 77.1%; remaining activity at 0.063 µM (C. briggsae complex I; [3]): 43.5%; remaining activity at 0.063 µM (C. briggsae complex I; [4]): 44.1%; remaining activity at 0.125 µM (C. briggsae complex I; C. briggsae mitochondria, 0.125 µM, Mean, read-out: in vitro complex I activity relative to solvent control): 26.1%; remaining activity at 0.313 µM (C. briggsae complex I; C. briggsae mitochondria, 0.313 µM, Mean, read-out: in vitro complex I activity relative to solvent control): 7.94%; remaining activity at 0.625 µM (C. briggsae complex I; C. briggsae mitochondria, 0.625 µM, Mean, read-out: in vitro complex I activity relative to solvent control): 0.818%; remaining activity at 1.5 µM (C. briggsae complex I; C. briggsae mitochondria, 1.5 µM, Mean, read-out: in vitro complex I activity relative to solvent control): 1.29%; remaining activity at 3 µM (C. briggsae complex I; C. briggsae mitochondria, 3 µM, Mean, read-out: in vitro complex I activity relative to solvent control): 1.71%; remaining activity at 15 µM (C. briggsae complex I; C. briggsae mitochondria, 15 µM, Mean, read-out: in vitro complex I activity relative to solvent control): 1.4%; remaining activity at 37.5 µM (C. briggsae complex I; C. briggsae mitochondria, 37.5 µM, Mean, read-out: in vitro complex I activity relative to solvent control): 1.05%; remaining activity at 75 µM (C. briggsae complex I; C. briggsae mitochondria, 75 µM, Mean, read-out: in vitro complex I activity relative to solvent control): 0.358%; IC50 (C. briggsae complex I; purified mitochondria): 60.3 nM
